Experiment in all cases: NCI anticancer screen, dose series, 48 h
The subject of assay [1] is A549 NSCLC.
Assay [2] relates to ACHN renal.
The subject of assay [3] is COLO 205 colon.
Assay [4] relates to DU-145 prostate.
In assay [5] the test system is HCT-116 colon.
Assay [6] concerns KM12 colon.
Assay [7] relates to RPMI-8226 leukemia.
Assay [8] deals with SF-295 CNS.
Assay [9] deals with SK-MEL-2 melanoma.
Assay [10] concerns SN12C renal.

Where “and” joins values, the source holds several entries; their conditions need not be identical. Equal values may be shown once.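 These data come from cells grown in 96-well plates and exposed to compound for 48 hours at five concentrations. Here, GI50 denotes the concentration required for 50% inhibition of growth. TGI: concentration producing complete growth inhibition.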 A value given as a limit tells only on which side of the number the result lay.

For the molecule `Brc1ccc2c(c1)-c1ccccc1C1=NCCN12`, the GI50 in [1] was 0.548 µM; in [2] it was 0.519 µM; in assay [3], 0.652 µM; in assay [4], 1.09 µM; in assay [5] it was 0.403 µM; in assay [6], 1.02 µM. For the same molecule, the GI50 in assay [7] is 1.71 µM; in [8], 0.984 µM; in assay [9] it was 1.87 µM; in assay [10], 1.13 µM. For the same molecule, the TGI in assay [1] is 3.58 µM; in assay [2], 12.4 µM; in [3] it was 2.33 µM; in assay [4], 10.9 µM; in assay [5] it was 10.2 µM; in assay [6] it was 11.3 µM. Besides, the TGI in assay [7] turned out to be 4.95 µM; in assay [8] it was 4 µM; in assay [9], 4.18 µM; in [10] it was 13 µM.
As to `Cn1c(=O)c(Oc2ccc(F)cc2F)cc2cnc(NC3CCC(O)CC3)nc21` (stereo not given), the GI50 in assay [1], in [2], in [3], in assay [4], in [5] and in assay [6] was over 25 µM in each case. Besides, the GI50 in [7], in assay [8], in assay [9] and in assay [10] was over 25 µM each time. Also, the TGI in assay [1], in [2], in assay [3], in assay [4], in assay [5] and in [6] was over 25 µM in each case. Besides, the TGI in assay [7], in assay [8], in [9] and in assay [10] was over 25 µM in each case.
In the case of `COc1cc2nccc(Oc3ccc(NC(=O)C4(C(=O)Nc5ccc(F)cc5)CC4)cc3)c2cc1OC`, the GI50 is > 10 µM and 3.55 µM in [1]; > 10 µM and 3.88 µM in assay [2]; 6 µM and 2.1 µM in assay [3]; > 10 µM and 5.47 µM in assay [4]; > 10 µM and 3.73 µM in [5]; 0.333 µM and 0.0482 µM in assay [6]. Moreover, the GI50 in assay [7] is > 10 µM and 4.09 µM; in assay [8] it was 0.406 µM and 0.289 µM; in assay [9], > 10 µM and 7.13 µM; in assay [10], 3.97 µM and 1.02 µM. For the same molecule, the TGI was over 61.4 µM in [1]; > 10 µM and 46.3 µM in [2]; > 10 µM and 4.63 µM in assay [3]; over 100 µM in assay [4]; over 41.5 µM in assay [5]; over 100 µM in assay [6]. Also, the TGI in assay [7] was over 57.7 µM; in assay [8] it was > 10 µM and 4.95 µM; in assay [9], > 10 µM and 27.9 µM; in assay [10], over 54.2 µM.
Regarding `CCc1c[nH]c2ncnc(N3CC[C@](N)(CNC(=O)c4ccc(F)cc4F)C3)c12`, the GI50 in assay [1] is 7.36 µM; in assay [2], 9.46 µM; in assay [3], 8.12 µM; in [4] it was 18.3 µM; in assay [5], 8.91 µM; in [6], 1.25 µM. Further, the GI50 in [7] is 20.8 µM; in [8] it was 1 µM; in [9], 28 µM; in [10], 24.2 µM. For the same molecule, the TGI in [1] is over 95.5 µM; in assay [2], over 100 µM; in [3], over 64.8 µM; in [4], over 100 µM; in assay [5], over 100 µM; in assay [6], over 100 µM. The TGI in assay [7], in assay [8], in assay [9] and in [10] was over 100 µM throughout.
In the case of `CC(=O)Nc1ccc(C(=O)NN2C(=O)CSC2c2ccccc2)cc1` (stereo not given), the TGI in assay [1], in [2], in assay [3], in assay [4], in assay [5] and in assay [6] was over 100 µM throughout. Further, the TGI in assay [7], in [8], in assay [9] and in [10] was over 100 µM throughout.
On to `CC(=O)Nc1ccc(C(=O)COc2cccc(/C=C3\CCc4ccccc4C3=O)c2)cc1`, for which the GI50 is 38.1 µM in assay [1]; 21.9 µM in [2]; 17.2 µM in assay [3]; 19.2 µM in [4]; 4.09 µM in [5]; 4.92 µM in assay [6]. The GI50 in [7] is 1.82 µM; in assay [8] it was 11.2 µM; in assay [9] it was 14.8 µM; in [10], 27.6 µM. Besides, the TGI was over 100 µM in assay [1]; 78.4 µM in assay [2]; 34.5 µM in [3]; 53 µM in assay [4]; 17.1 µM in assay [5]; 18.1 µM in assay [6]. In addition, the TGI in assay [7] was 4.97 µM; in assay [8], 39.6 µM; in [9], 65.8 µM; in [10], over 100 µM.
Consider `O=C(Nc1cccc(C(F)(F)F)c1)Nc1ccc(OCc2nnc(-c3ccccc3)o2)c(F)c1`, for which the GI50 in assay [1] was 6.02 µM; in assay [2] it was 2.92 µM; in assay [3] it was 2.47 µM; in [4], 6.06 µM; in assay [5] it was 3.02 µM; in [6], 2.43 µM. Moreover, the GI50 is 1.67 µM in assay [7], 2.7 µM in assay [8], 7.16 µM in [9] and 9.36 µM in assay [10]. Besides, the TGI was found to be 38.5 µM in [1]; 12.3 µM in [2]; 10.6 µM in assay [3]; 28.3 µM in [4]; 16.5 µM in [5]; 12.8 µM in assay [6]. In addition, the TGI was 6.2 µM in [7], 14.1 µM in assay [8], 25.8 µM in assay [9] and 46.1 µM in [10].
On to `COC(=O)/C(=C/c1ccc(OC)cc1)c1cc(OC)c(OC)c(OC)c1`, for which the TGI in [1] is over 100 µM; in assay [2], over 100 µM; in assay [3] it was 13.7 µM; in assay [4], 8.56 µM; in assay [5], 55.3 µM; in assay [6], 71 µM. Further, the TGI is 69.5 µM in assay [7], 8.02 µM in assay [8], over 100 µM in assay [9] and over 100 µM in assay [10].

Source of the values: PubChem BioAssay (NCI).
